Results taken from patent publication US11198900B2, “Nucleic acid-based linkers for detecting and measuring interactions” (Children's Medical Center Corporation, priority 2014, dated 2021).

Assays:
[1] = tested on: disulfide bond (var 4-S-S-var 8); experiment: DNA nanoswitch disulfide bond reduction; conditions: 10 μM TCEP, room temperature (25° C.)
Experimental: This construct was created in 3 steps. 1) Var 4 and a truncated version of var 8 with a 3′ and a 5′ thiol respectively, were reduced in 50 mM TCEP (BondBreaker Thermo Scientific). 2) These two oligonucleotides were linked by a disulfide. 3) The disulfide-bridged oligonucleotides were hybridized onto the DNA nanoswitch. • 1) To reduce the thiols on the oligonucleotides they were incubated in 50 mM TCEP for 1 hour at RT. • 2) Equal volumes of the two oligonucleotide-TCEP mixtures were then combined. The TCEP was removed using a QIAGEN nucleotide-removal kit. The oligonucleotides were then allowed to form disulfides in the absence of reducing agent in PBS for 1 hour before running the products on a precast 4-20% gradient polyacrylamide TBE gel. As the oligonucleotides were different sizes (60 and 30 nt) the appropriate hetero dimer could be easily identified and purified using electroelution as previously described^5. • 3) The var 4-S-S-var 8 was used instead of the normal var 4 and var 8. This was annealed onto the linear M13 backbone at a 1:1 ratio and was added along with the other oligonucleotides at the beginning of the annealing. This yielded loops with a disulfide bridging variable regions 4 and 8.
With these loops in hand we could observe loop opening as a result of TCEP reduction of the disulfide bond. […]

[2] = target: T1, streptavidin (Streptomyces avidinii, UniProt P22629); experiment: DNA nanoswitch gel electrophoresis, biotin-streptavidin kinetics (Example 2, FIG. 7 and 8); type: binding; conditions: for dissociation time: 150 mM physiological salt
T1 construct: purchased Rockland
Text: FIG. 7. […] (A) The DNA nanoswitch has two distinct states, depending on the binding of a receptor-ligand pair, that can be distinguished by gel electrophoresis, (B) In the presence of excess ligand, a nanoswitch in the bound state will become trapped in the unbound state upon dissociation. […] The amount of looped construct is quantified from the gel to determine the kinetics of dissociation.
FIG. 7D, for example, illustrates the formation of looped constructs having two biotins in the presence of streptavidin (t=0).
Linkers were designed according to protocols for long (2580 bp) and short (600 bp) loops as described herein. […] All other oligos were the same as those used previously. Briefly, looped constructs were made by mixing a long single-stranded DNA (M13mp18, in this case) with over 121 oligos that are complementary along its length. […] The constructs come together by self-assembly with a temperature ramp heating and cooling them.
Recognizing that the nanoswitch conformation informs the receptor-ligand binding state (bound or unbound), and that the conformation can be observed on a gel, an assay to measure bulk interaction kinetics was developed. The assay, conceptually shown in FIG. 7, proceeds as follows: 1) form a looped nucleic acid (DNA) construct that relies on a receptor and a ligand being bound to each other, 2) quench the interaction between the receptor and the ligand, for example, with excess receptor or ligand to prevent rebinding following dissociation, 3) monitor the relative amount of looped construct over time to measure kinetics.
Linear double-stranded DNA constructs 7249 base pairs (bp) in length were self-assembled by combining the single-stranded M13 bacteriophage genome with 121 complementary oligos. (See also Halvorsen K et al., 2011.). Two of the oligos were labeled with single biotins and placed 2580 bp from each other, such that interaction with streptavidin induced the formation of a 2580 bp loop in the structure. […] The entire array of 16 conditions with five time points each plus controls was then run on a single 96 lane agarose gel (FIG. 8).
The gel analysis tool in ImageJ was used to measure the integrated intensity of the band containing looped construct, and this quantity was normalized by the integrated intensity of a reference band in the same lane from a DNA ladder, which was added to the construct prior to starting experiments. Individual time constants for each experimental condition were determined by fitting a single exponential decay to the data using an error weighted least squares fitting.

[3] = target: Neutravidin (Gallus gallus, UniProt P02701); experiment: DNA nanoswitch gel electrophoresis, biotin with avidin and Neutravidin; type: binding; conditions: relative to avidin
Experimental: Preparations with avidin and neutravidin were prepared in the same way, but protein concentrations were sometimes altered to enable on-rate measurements over a similar time scale as the streptavidin experiments.

[4] = target: T1, streptavidin; experiment: DNA nanoswitch gel electrophoresis, biotin-streptavidin on-rate and off-rate (Example 3); type: binding
Experimental: This construct used biotinylated versions of two oligonucleotides (var 4 and var 8), which were used in 4× molar excess to the scaffold, while all other oligonucleotides were used in a 10× molar excess. […] The final DNA construct was then diluted 100× from its original concentration of ˜16 nM (to 160 pM), and mixed in equal volumes with streptavidin (Rockland) at 6 nM nominal concentration to form the loops, yielding final nominal concentrations of ˜80 pM and 3 nM, respectively.
The 25° C. experiment was performed at room temperature, the 4° C. experiment was performed in a cold room, and the 37° C. and 50° C. experiments were performed using a thermal cycler. […] Actual concentrations used to determine the on-rates were measured using spectrophotometry and a HABA assay to determine streptavidin activity.
Off-rate measurements were performed by forming looped construct as described above, and letting the solution sit for at least 24 hours to allow the system to reach equilibrium. […] The 4° C. condition was done in a refrigerator, the 25° C. sample was done in a water bath, and the 37° C. and 50° C. temperatures were done in a thermal cycler. To run all the samples on a single gel, the quenching times were determined relative to the predetermined gel running time.
The amount of material in each gel band was quantified by analyzing the scanned gel images with the gel analysis tool in the freely available ImageJ software package. Using rectangular regions of interest that just capture the width of the gel bands, this toolbox produces intensity profiles whose area can be measured to quantify the total brightness in each band. We applied the same rectangular window size to each lane within a single gel. In many gels the highest molecular weight band of the added ladder was used as a normalizing reference lane. This relaxed the constraints of pipetting perfectly across all lanes. • 2) All multistate (with 5 bands) gels were analyzed as follows
Error bars were produced based on this analysis, and all fitting procedures used an error weighted least squares fit.
The time evolution of DNA nanoswitch states are modeled using multistep reaction kinetics. On rates are modeled as a two-step process: Unbound Linear→Singly Bound Linear→Looped
Step 1 represents the binding of a free receptor in solution to a ligand on the scaffold (yielding the solution on-rate), Step 2 represents the subsequent binding of this receptor to another ligand on the same scaffold to form a loop (yielding the loop-closure rate).
We additionally used Eyring analysis to fit the temperature dependence of the kinetic rates: […]

[5] = target: T1, streptavidin; experiment: DNA nanoswitch gel electrophoresis, desthiobiotin-streptavidin off-rate; type: binding
Experimental: Desthiobiotin experiments were conducted in a similar manner as the biotin experiments with slight modifications. […] The off-rate of the desthiobiotin interaction is much faster than the typical 100 minute gel run time. Noting that once a loop opens in the gel, the reptation of the DNA prevents the loop from closing again, we ran samples for different amounts of time in the gel at 15 V/cm and 4° C., and quantified the fraction looped as a function of running time. In addition to allowing the determination of the desthiobiotin-streptavidin off rate, this gel also allowed us to determine the minimum amount of time required to achieve separation of the looped and unlooped bands in the gel. This enabled the use of the standard quenching technique for measuring desthiobiotin off-rates as described in the previous section; these gels were run at 15 V/cm for 10 minutes in pre-chilled electrophoresis buffer.

[6] = calculated from on-rate and off-rate

T1 sequence (P22629 25-183): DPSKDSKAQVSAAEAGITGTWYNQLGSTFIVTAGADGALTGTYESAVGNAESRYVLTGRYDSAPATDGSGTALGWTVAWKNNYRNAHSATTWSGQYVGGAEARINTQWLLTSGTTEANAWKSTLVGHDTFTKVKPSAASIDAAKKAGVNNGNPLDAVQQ
Sequence of Neutravidin (P02701 25-152): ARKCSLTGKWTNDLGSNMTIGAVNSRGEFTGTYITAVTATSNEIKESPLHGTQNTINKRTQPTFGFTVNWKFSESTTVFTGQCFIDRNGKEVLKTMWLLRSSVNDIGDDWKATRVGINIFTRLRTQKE

SMILES: O=C(O)CCP(CCC(=O)O)CCC(=O)O [TCEP]
- time constant of disulfide bond reduction [1]: 2.6±0.4 weeks

SMILES: O=C(O)CCCC[C@@H]1SC[C@@H]2NC(=O)N[C@@H]21 [biotin]
- change of off-rate with salt ([2]; 5 mM to 500 mM at a given temperature): less than 2 fold
- dissociation time ([2]; 25° C.): 148 ± 10 h
- dissociation time ([2]; 37° C.): 11.2 ± 3 h
- variation of off-rate with temperature ([2]; 4° C. to 50° C. at a given salt concentration): over 100 fold
- off-rates as fast as ([2]; high temperature): 40 min
- affinity of Neutravidin for biotin, weaker than avidin's [3]: 20 times
- on-rate ([4]; 150 mM salt, room temperature): 4.0±0.7×10^6 M^−1s^−1
- variation of dissociation kinetics over temperature range ([4]; 4-50° C.): ~1,000 fold
- variation of dissociation kinetics over salt range ([4]; 25-500 mM): about 2 fold
- equilibrium enthalpy change, ΔH [4, 6]: 26.01 ± 0.05 kcal/mol
- equilibrium free energy change, ΔG^0 [4, 6]: -17.1 ± 0.1 kcal/mol
- dissociation time ([4]; physiological salt conditions, 25° C.): 9.7 ± 0.4 days

SMILES: C[C@@H]1NC(=O)N[C@@H]1CCCCCC(=O)O [desthiobiotin]
- off-rate ([5]; 4° C.): 35.3 ± 7.5 min
- off-rate ([5]; room temperature): 8.6 ± 1.2 min
